Data from ChEMBL document CHEMBL6103652, “Niacin Ester Derivative of Brefeldin A as a Potential Dual-Target Arf1/BMX Inhibitor for Bladder Cancer” (J Nat Prod, 2025).
The source made the active and inactive calls. No cut-off for these calls is given here.

Columns and labels:
T-24 [1] = experiment: Inhibition of colony formation in human T24 cells at 0.25 uM measured after 10 days by crystal violet staining based analysis; assay type: functional, cell-based; details: time 10.0 day
T-24 [2] = experiment: Induction in apoptosis in human T24 cells assessed as late apoptotic cells at 0.13 uM incubated for 48 hrs by Annexin V-FITC staining based flow cytometry analysis (reference value: 4.78 %); assay type: functional
T-24 [3] = experiment: Induction in apoptosis in human T24 cells assessed as late apoptotic cells at 0.5 uM incubated for 48 hrs by Annexin V-FITC staining based flow cytometry analysis (reference value: 4.78 %); assay type: functional
[4] = Cytotoxicity against human LO2 cells measured after 72 hrs by MTT assay; assay type: toxicity, cell-based, L02
[5] = molecular target: T1, Cytoplasmic tyrosine-protein kinase BMX (Homo sapiens) (UniProt P51813); experiment: Inhibition of BMX phosphorylation in human T24 cells incubated for 24 hrs by Western blotting analysis; assay type: cell-based; details: dose 0.13-0.5 µM
T1 sequence (whole entry): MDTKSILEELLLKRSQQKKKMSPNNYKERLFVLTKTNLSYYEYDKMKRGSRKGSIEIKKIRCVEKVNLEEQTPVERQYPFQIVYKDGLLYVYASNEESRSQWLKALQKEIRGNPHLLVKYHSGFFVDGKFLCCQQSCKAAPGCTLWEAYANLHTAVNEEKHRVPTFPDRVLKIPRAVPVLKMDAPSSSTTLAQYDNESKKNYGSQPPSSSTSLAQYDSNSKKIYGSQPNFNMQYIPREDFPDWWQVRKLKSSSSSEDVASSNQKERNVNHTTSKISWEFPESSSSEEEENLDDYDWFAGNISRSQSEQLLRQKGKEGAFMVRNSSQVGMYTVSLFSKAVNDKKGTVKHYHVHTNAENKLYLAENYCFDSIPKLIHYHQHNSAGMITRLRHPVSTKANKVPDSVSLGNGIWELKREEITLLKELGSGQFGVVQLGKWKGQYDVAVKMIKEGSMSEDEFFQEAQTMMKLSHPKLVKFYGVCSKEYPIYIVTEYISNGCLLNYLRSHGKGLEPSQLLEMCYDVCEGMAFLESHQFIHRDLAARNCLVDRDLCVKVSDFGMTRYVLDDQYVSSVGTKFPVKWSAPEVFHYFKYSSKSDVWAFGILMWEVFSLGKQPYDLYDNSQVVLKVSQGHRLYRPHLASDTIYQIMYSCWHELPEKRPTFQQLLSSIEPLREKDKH

T-24 [6] = experiment: Inhibition of cell migration in human T24 cells at 0.125 uM incubated for 24 hrs by scratch assay (reference value: 88 %); assay type: functional; details: T-24, 24 h
[7] = Antitumor activity against mouse MB49 cells implanted in male C57BL/6 mouse assessed as reduction in Ki67 expression level at 1 mg/kg,iv bid measured after 14 days by immunohistochemical analysis relative to control; assay type: functional; parameters: scale not given: the % may be the effect or the level left; details: time 14 day
[8] = Antitumor activity against mouse MB49 cells implanted in male C57BL/6 mouse assessed as reduction in CD133 expression level at 1 mg/kg,iv bid measured after 14 days by immunohistochemical analysis relative to control; assay type: functional; parameters: scale not given: the % may be the effect or the level left; details: time 14 day
[9] = Downregulation of STAT3 expression level in human T24 cells at 0.25 uM incubated for 24 hrs by Western blotting analysis relative to control; assay type: functional, T-24
T-24 [10] = experiment: Induction in apoptosis in human T24 cells assessed as early apoptotic cells at 0.13 uM incubated for 48 hrs by Annexin V-FITC staining based flow cytometry analysis (reference value: 3.64 %); assay type: functional
[11] = Toxicity in male C57BL/6 mouse allografted with mouse MB49 cells assessed as adverse effect at 1 mg/kg,iv bid measured after 14 days; assay type: organism-based; details: in vivo, 336 h, time 14 day
T-24 [12] = experiment: Induction of cell cycle arrest in human T24 cells assessed as accumulation of cells at S phase at 0.50 uM incubated for 24 hrs by RNase A/Propidium Iodide staining based flow cytometry analysis (reference value: 31.27 %); assay type: functional; details: dose 0.5 µM
T-24 [13] = experiment: Inhibition of cell migration in human T24 cells at 0.25 uM incubated for 12 hrs by scratch assay (reference value: 66 %); assay type: functional
[14] = Antitumor activity against mouse MB49 cells implanted in male C57BL/6 mouse model assessed as tumor growth inhibition at 1 mg/kg,iv bid measured after 14 days relative to control; assay type: functional; details: MB49, 336 h, time 14 day, read-out: TGI
[15] = Half life in Sprague-Dawley rat at 5 mg/kg, iv measured upto 24 hrs; assay type: ADME, organism-based; details: in vivo
[16] = Selectivity index, ratio of IC50 for cytotoxicity against human LO2 cells to IC50 for antiproliferative activity against human T24 cells; assay type: toxicity, cell-based; details: LO2 cells and T24 cells, read-out: Ratio IC50
[17] = Cmax in Sprague-Dawley rat at 5 mg/kg, iv measured upto 24 hrs; assay type: ADME, organism-based; details: in vivo
T-24 [18] = experiment: Induction of cell cycle arrest in human T24 cells assessed as accumulation of cells at G2/M phase at 0.50 uM incubated for 24 hrs by RNase A/Propidium Iodide staining based flow cytometry analysis (reference value: 22.67 %); assay type: functional; details: dose 0.5 µM
MB49 [19] = experiment: Antitumor immunity against mouse MB49 cells implanted in male C57BL/6 mouse assessed as increase in infiltration of CD8+T cells at 1 mg/kg,iv bid measured after 14 days immunofluorescence based analysis; assay type: functional, organism-based; details: time 14.0 day
T-24 [20] = experiment: Induction in apoptosis in human T24 cells assessed as early apoptotic cells at 0.5 uM incubated for 48 hrs by Annexin V-FITC staining based flow cytometry analysis (reference value: 3.64 %); assay type: functional
T24 = experiment: Inhibition of AKT phosphorylation in human T24 cells incubated for 24 hrs by Western blotting analysis; assay type: cell-based; details: dose 0.13-0.5 µM
MB49 [21] = experiment: Antitumor immunity against mouse MB49 cells implanted in male C57BL/6 mouse assessed as increase in infiltration of CD3+ cells at 1 mg/kg,iv bid measured after 14 days immunofluorescence based analysis; assay type: functional, organism-based; details: time 14.0 day
T-24 [22] = experiment: Inhibition of colony formation in human T24 cells at 0.50 uM measured after 10 days by crystal violet staining based analysis relative to control; assay type: functional; details: T-24, 240 h, time 10 day
[23] = Clearance in Sprague-Dawley rat at 5 mg/kg, iv measured upto 24 hrs; assay type: ADME, organism-based; details: in vivo
[24] = molecular target: Signal transducer and activator of transcription 3 (Homo sapiens) (UniProt P40763); experiment: Inhibition of STAT3 phosphorylation in human T24 cells incubated for 24 hrs by Western blotting analysis; assay type: cell-based; details: dose 0.13-0.5 µM
T-24 [25] = experiment: Inhibition of cell migration in human T24 cells at 0.25 uM incubated for 24 hrs by scratch assay (reference value: 88 %); assay type: functional; details: T-24, 24 h
T-24 [26] = experiment: Induction in apoptosis in human T24 cells assessed as viable cells at 0.25 uM incubated for 48 hrs by Annexin V-FITC staining based flow cytometry analysis (reference value: 90.44 %); assay type: functional; details: read-out: Activity
T-24 [27] = experiment: Induction of cell cycle arrest in human T24 cells assessed as accumulation of cells at G2/M phase at 0.13 uM incubated for 24 hrs by RNase A/Propidium Iodide staining based flow cytometry analysis (reference value: 22.67 %); assay type: functional
[28] = MRT(0 to t) in Sprague-Dawley rat at 5 mg/kg, iv measured upto 24 hrs; assay type: ADME, organism-based; details: in vivo
[29] = Volume of distribution at steady state in Sprague-Dawley rat at 5 mg/kg, iv measured upto 24 hrs; assay type: ADME, organism-based; details: in vivo, read-out: Vdss

Sequence of Signal transducer and activator of transcription 3 (Homo sapiens) (P40763 whole entry): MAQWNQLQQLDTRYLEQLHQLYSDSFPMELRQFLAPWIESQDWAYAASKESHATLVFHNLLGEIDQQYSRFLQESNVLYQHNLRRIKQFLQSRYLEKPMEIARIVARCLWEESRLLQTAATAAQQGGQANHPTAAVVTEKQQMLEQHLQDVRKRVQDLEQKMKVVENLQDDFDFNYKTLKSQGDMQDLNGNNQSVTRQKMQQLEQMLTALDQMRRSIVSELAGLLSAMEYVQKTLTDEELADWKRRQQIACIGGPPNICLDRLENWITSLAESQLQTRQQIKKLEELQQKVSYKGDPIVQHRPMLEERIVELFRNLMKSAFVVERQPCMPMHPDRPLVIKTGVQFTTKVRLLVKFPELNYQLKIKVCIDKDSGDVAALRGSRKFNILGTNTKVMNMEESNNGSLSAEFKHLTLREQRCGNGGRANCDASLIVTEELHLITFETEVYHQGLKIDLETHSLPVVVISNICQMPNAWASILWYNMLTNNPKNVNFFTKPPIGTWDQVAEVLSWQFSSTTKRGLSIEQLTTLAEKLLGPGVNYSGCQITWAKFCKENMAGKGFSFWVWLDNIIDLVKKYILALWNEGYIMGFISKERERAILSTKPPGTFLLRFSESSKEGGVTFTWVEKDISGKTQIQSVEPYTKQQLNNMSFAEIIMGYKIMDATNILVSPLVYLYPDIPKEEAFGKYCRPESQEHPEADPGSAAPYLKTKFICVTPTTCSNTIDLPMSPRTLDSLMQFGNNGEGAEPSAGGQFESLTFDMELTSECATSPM

inhibition [5]: Dose-dependent-effect | half-life [15]: 21.6 min | Cmax [17]: 1460 ng/mL | clearance [23]: 68 mL/min/kg | inhibition [24]: Dose-dependent-effect | MRT last at 24 h [28]: 8.4 min | Vd [29]: 0.59 L/kg
SMILES: C[C@H]1CCC/C=C/[C@@H]2C[C@H](O)C[C@H]2[C@H](OC(=O)c2cccnc2)/C=C/C(=O)O1
inhibition (T-24 [1]): Active; Entirely Suppressed Clone Formation Was Observed | Activity (T-24 [2]): 4.41% | Activity (T-24 [3]): 24.81% | IC50 at 72 h [4]: 790 nM | wound closure at 0.125 µM (T-24 [6]): 44% | Activity [7]: 56% | Activity [8]: 61% | Activity [9]: 53% | Activity (T-24 [10]): 5.52% | Activity [11]: Non-toxic | Activity (T-24 [12]): 19.52% | wound closure at 0.25 µM (T-24 [13]): 17% | inhibition in vivo at 1 mg/kg [14]: 51% | selectivity ratio [16]: 3.59 | Activity (T-24 [18]): 14.82% | Activity (MB49 [19]): Active | Activity (T-24 [20]): 6.11% | inhibition (T24): Dose-dependent-effect | Activity (MB49 [21]): Active | inhibition at 0.5 µM (T-24 [22]): 100% | wound closure at 0.25 µM (T-24 [25]): 26% | viability at 0.25 µM (T-24 [26]): 66.9% | Activity (T-24 [27]): 22.53%
